Measured values: PubChem BioAssay AID1259411 (Chemical Carcinogenesis Research Information System (CCRIS), 2018)
Calls of active or inactive are those of the source. How the calls were made is not given here.

System: rodent carcinogenicity bioassays, tumor incidence
Experiment: CCRIS carcinogenicity studies
In short: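 NCI-built, expert-reviewed records of carcinogenicity and related test outcomes (mutagenicity, tumor promotion/inhibition) compiled from published and report sources, historical span 1985-2011, not updated.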

Question: What does the source list for `COc1c(Cl)c(Cl)c(Cl)c(Cl)c1Cl`?
Answer: carcinogen call (Species: MOUSE, Strain/Sex: B6C3F1/FEMALE, Route: GAVAGE, Dose: 0, 20, 40 MG/KG IN CORN OIL 5 D/WK FOR 104 WK (STUDY DURATION: 105 WK), Dose: 0, 20, 40 MG/KG IN CORN OIL 5 D/WK FOR 104 WK (STUDY DURATION: 105 WK)): inactive; negative; carcinogen call (Species: MOUSE, Strain/Sex: B6C3F1/MALE, Route: GAVAGE, Dose: 0, 20, 40 MG/KG IN CORN OIL 5 D/WK FOR 104 WK (STUDY DURATION: 105 WK), Dose: 0, 20, 40 MG/KG IN CORN OIL 5 D/WK FOR 104 WK (STUDY DURATION: 105 WK), Tumor Site: Type of Lesion: ADRENAL MEDULLA: BENIGN PHEOCHROMOCYTOMA, LIVER: HEMANGIOSARCOMA): active; positive; carcinogen call (Species: RAT, Strain/Sex: F344/FEMALE, Route: GAVAGE, Dose: 0, 20, 40 MG/KG IN CORN OIL 5 D/WK FOR 103 WK (STUDY DURATION: 104 WK), Dose: 0, 20, 40 MG/KG IN CORN OIL 5 D/WK FOR 103 WK (STUDY DURATION: 104 WK), Tumor Site: Type of Lesion: ADRENAL MEDULLA: BENIGN PHEOCHROMOCYTOMA): equivocal; carcinogen call (Species: RAT, Strain/Sex: F344/MALE, Route: GAVAGE, Dose: 0, 10, 20, 40 MG/KG IN CORN OIL 5 D/WK FOR 103 WK (STUDY DURATION: 104 WK), Dose: 0, 10, 20, 40 MG/KG IN CORN OIL 5 D/WK FOR 103 WK (STUDY DURATION: 104 WK), Tumor Site: Type of Lesion: ADRENAL MEDULLA: BENIGN PHEOCHROMOCYTOMA): active; positive

Question: How did the carcinogen call (Species: MOUSE, Strain/Sex: CRJ:BDF1/FEMALE, Route: ORAL, Dose: 667, 2000, 6000 PPM IN DIET FOR 2 YRS (STUDY DURATION: 2 YRS), Dose: 667, 2000, 6000 PPM IN DIET FOR 2 YRS (STUDY DURATION: 2 YRS), Tumor Site: Type of Lesion: LIVER: HEPATOCELLULAR ADENOMA AND CARCINOMA) turn out when `c1ccc(-c2ccccc2)cc1` was run?
Answer: The carcinogen call was “active; positive”.

Question: What about the carcinogen call (Species: MOUSE, Strain/Sex: CRJ:BDF1/MALE, Route: ORAL, Dose: 0, 667, 2000, 6000 PPM IN DIET FOR 2 YRS (STUDY DURATION: 2 YRS), Dose: 0, 667, 2000, 6000 PPM IN DIET FOR 2 YRS (STUDY DURATION: 2 YRS)) of the same compound?
Answer: Its carcinogen call is “inactive; negative”.

Question: And the carcinogen call (Species: RAT, Strain/Sex: F344/FEMALE, Route: ORAL, Dose: 0, 500, 1500, 4500 PPM IN DIET FOR 105 WK (STUDY DURATION: 105 WK ), Dose: 0, 500, 1500, 4500 PPM IN DIET FOR 105 WK (STUDY DURATION: 105 WK ))?
Answer: The carcinogen call was “inactive; negative”.

Question: And the carcinogen call (Species: RAT, Strain/Sex: F344/MALE, Route: ORAL, Dose: 0, 500, 1500, 4500 PPM IN DIET FOR 105 WK (STUDY DURATION: 105 WK ), Dose: 0, 500, 1500, 4500 PPM IN DIET FOR 105 WK (STUDY DURATION: 105 WK ), Tumor Site: Type of Lesion: URINARY BLADDER: TRANSITIONAL CELL PAPILLOMA, TRANSITIONAL CELL CARCINOMA)?
Answer: The carcinogen call was “active; positive”.

Question: Which carcinogen call (Species: RAT, Strain/Sex: SPRAGUE-DAWLEY/FEMALE, Route: GAVAGE, Dose: 0, 20, 50, 200 MG/KG/D IN 0.5% CARBOXYMETHYLCELLULOSE SUSPENSION FOR 103 WK (STUDY DURATION: 103 WK), Dose: 0, 20, 50, 200 MG/KG/D IN 0.5% CARBOXYMETHYLCELLULOSE SUSPENSION FOR 103 WK (STUDY DURATION: 103 WK)) does the source give for `COc1ccccc1O` here?
Answer: Its carcinogen call is “inactive; negative”.

Question: And the carcinogen call (Species: RAT, Strain/Sex: SPRAGUE-DAWLEY/MALE, Route: GAVAGE, Dose: 0, 20, 50, 200 MG/KG/D IN 0.5% CARBOXYMETHYLCELLULOSE SUSPENSION FOR 103 WK (STUDY DURATION: 103 WK), Dose: 0, 20, 50, 200 MG/KG/D IN 0.5% CARBOXYMETHYLCELLULOSE SUSPENSION FOR 103 WK (STUDY DURATION: 103 WK))?
Answer: The carcinogen call was “inactive; negative”.

Question: `CN=NCc1ccc(C(=O)NC(C)C)cc1` was tested. Which carcinogen call (Species: MOUSE, Strain/Sex: CDF1/MALE, Route: GAVAGE, Dose: 0, 300 MG/KG IN 0.01 ML OF 0.5% AQUEOUS SOLUTION OF SODIUM CARBOXYMETHYL CELLULOSE 1/WK FOR 4 WK THEN 0, 400 MG/KG 1/WK, Dose: 0, 300 MG/KG IN 0.01 ML OF 0.5% AQUEOUS SOLUTION OF SODIUM CARBOXYMETHYL CELLULOSE 1/WK FOR 4 WK THEN 0, 400 MG/KG 1/WK, Tumor Site: Type of Lesion: PULMONARY SYSTEM: TUMOR, KIDNEY: CYSTADENOMA) did it give?
Answer: Its carcinogen call is “active; positive”.

Question: How did the carcinogen call (Species: RAT, Strain/Sex: F344/FEMALE, Route: ORAL, Dose: 0, 2.5, 5% IN DRINKING WATER FOR 104 WK (MEAN TOTAL INTAKE 0; 237.7; 412.1 G/RAT) (STUDY DURATION: 113 WK), Dose: 0, 2.5, 5% IN DRINKING WATER FOR 104 WK (MEAN TOTAL INTAKE 0; 237.7; 412.1 G/RAT) (STUDY DURATION: 113 WK)) turn out when `CC(O)C(=O)O` (centres undefined) was run?
Answer: Its carcinogen call is “inactive; negative”.

Question: And the carcinogen call (Species: RAT, Strain/Sex: F344/MALE, Route: ORAL, Dose: 0, 2.5, 5% IN DRINKING WATER FOR 104 WK (MEAN TOTAL INTAKE 0; 329.4; 625.4 G/RAT) (STUDY DURATION: 113 WK), Dose: 0, 2.5, 5% IN DRINKING WATER FOR 104 WK (MEAN TOTAL INTAKE 0; 329.4; 625.4 G/RAT) (STUDY DURATION: 113 WK))?
Answer: Its carcinogen call is “inactive; negative”.

Question: For `Cc1ccccc1[N+](=O)[O-]`, which carcinogen call (Species: MOUSE, Strain/Sex: B6C3F1/FEMALE, Route: ORAL, Dose: 0, 1250, 2500, 5000 PPM IN DIET FOR 105 WK (STUDY DURATION: 105 WK), Dose: 0, 1250, 2500, 5000 PPM IN DIET FOR 105 WK (STUDY DURATION: 105 WK), Tumor Site: Type of Lesion: CIRCULATORY SYSTEM: HEMANGIOSARCOMA, LARGE INTESTINE (CECUM): CARCINOMA, LIVER: HEPATOCELLULAR ADENOMA, HEPATOCELLULAR C, Tumor Site: Type of Lesion: CIRCULATORY SYSTEM: HEMANGIOSARCOMA, LARGE INTESTINE (CECUM): CARCINOMA, LIVER: HEPATOCELLULAR ADENOMA, HEPATOCELLULAR C) is on record?
Answer: The carcinogen call was “active; positive”.

Question: And the carcinogen call (Species: MOUSE, Strain/Sex: B6C3F1/MALE, Route: ORAL, Dose: 0, 1250, 2500, 5000 PPM IN DIET FOR 105 WK (STUDY DURATION: 105 WK), Dose: 0, 1250, 2500, 5000 PPM IN DIET FOR 105 WK (STUDY DURATION: 105 WK), Tumor Site: Type of Lesion: CIRCULATORY SYSTEM: HEMANGIOSARCOMA, LARGE INTESTINE (CECUM): CARCINOMA)?
Answer: The carcinogen call was “active; positive”.

Question: And the carcinogen call (Species: RAT, Strain/Sex: F344/FEMALE, Route: ORAL, Dose: 0, 625, 1250, 2000 PPM IN DIET FOR 105 WK (STUDY DURATION: 105 WK), Dose: 0, 625, 1250, 2000 PPM IN DIET FOR 105 WK (STUDY DURATION: 105 WK), Tumor Site: Type of Lesion: SKIN (SUBCUTANEOUS): FIBROMA, FIBROMA OR FIBROSARCOMA, MAMMARY GLAND: FIBROADENOMA: LIVER: HEPATOCELLULAR ADENOMA)?
Answer: Its carcinogen call is “active; positive”.

Question: What about the carcinogen call (Species: RAT, Strain/Sex: F344/MALE, Route: ORAL, Dose: 0, 625, 1250, 2000 PPM IN DIET FOR 105 WK (STUDY DURATION: 105 WK), Dose: 0, 625, 1250, 2000 PPM IN DIET FOR 105 WK (STUDY DURATION: 105 WK), Tumor Site: Type of Lesion: MESOTHELIUM: MALIGNANT MESOTHELIOMA, SKIN (SUBCUTANEOUS): LIPOMA, FIBROMA, FIBROSARCOMA, FIBROMA OR FIBROSARCOMA, MAMMAR, Tumor Site: Type of Lesion: MESOTHELIUM: MALIGNANT MESOTHELIOMA, SKIN (SUBCUTANEOUS): LIPOMA, FIBROMA, FIBROSARCOMA, FIBROMA OR FIBROSARCOMA, MAMMAR) of the same compound?
Answer: Its carcinogen call is “active; positive”.

Question: And the carcinogen call (Species: RAT, Strain/Sex: F344/MALE, Route: ORAL, Dose: 0, 2000, 5000 PPM IN DIET FOR FIRST 3 MO (STUDY DURATION: 105 WK), Dose: 0, 2000, 5000 PPM IN DIET FOR FIRST 3 MO (STUDY DURATION: 105 WK), Tumor Site: Type of Lesion: LIVER: HEPATOCELLULAR ADENOMA OR CARCINOMA, CHOLANGIOCARCINOMA: LUNG: ALVEOLAR/BRONCHIOLAR ADENOMA, ALVEOLAR/BRONCHIOLAR)?
Answer: Its carcinogen call is “active; positive”.

Question: How did the carcinogen call (Species: MOUSE, Strain/Sex: B6C3F1/MALE, Route: INTRAPERITONEAL, Dose: 0, 400 NMOL IN 35 µL DMSO ON DAYS 1 (1/7 TOTAL DOSE), 8 (2/7 TOTAL DOSE), AND 15 (4/7 TOTAL DOSE) AFTER BIRTH (STUDY DUR) turn out when `O=[N+]([O-])c1cc2c3c(cccc3c1)-c1ccccc1-2` was run?
Answer: Its carcinogen call is “inactive; negative”.
